Results reported in publication PMC9127371, “Assembly of nuclear dimers of PI3K regulatory subunits is regulated by the Cdc42-activated tyrosine kinase ACK” (The Journal of Biological Chemistry, 2022).

Legend:
Format in all cases: cell-based
[1] = tested on: HEK293T cells expressing Y599F p85β; assay: Proliferation of HEK293T cells stably expressing Y599F p85β; conditions: AIM-100 8 μM; DMEM + 10% FBS; 1 μg/ml doxycycline; live cell counts, fold change over 24 h; three independent experiments
Procedure: (§1) Figure 4 Proliferation of HEK293T cells expressing ACK and p85β variants.A, proliferation of HEK293T cells stably expressing wtACK and caACK in 1% FBS. HEK293T cells stably expressing empty vector (control) or HA-tagged wtACK or caACK were seeded at a density of 3 × 10^4 cells per well. Cells were plated in replicates of three, and live cell counts were obtained at the times indicated. Data are plotted as fold change over t = 0 (seeding density). Data from three independent experiments are shown. Error bars represent SD. […] GAPDH is included as a loading control. Data are represented on the right in a bar chart with group significance testing performed by a two-way ANOVA; ∗p <0.05; ∗∗p < 0.01. B, proliferation of HEK293T cells stably expressing empty vector (control), WT p85β, or Y599F p85β. HEK293T cells stably expressing inducible FLAG-tagged WT p85β or p85β Y599F were seeded at a density of 3 × 10^4 cells per well and incubated at 37 °C for 16 h. All cells were then treated with 1 μg/ml doxycycline and incubated at 37 °C for the times indicated before live cell counts were taken. Data are plotted as fold change over the cell count at 24 h post doxycycline treatment. […]
(§2) Matched cell lines were chosen that had similar expression levels of the transgene. […] Cells were trypsinized and dispersed using a syringe before being counted using a Countess automated cell counter at specific timepoints. […]

ACK–p85α complex = assay: Co-immunoprecipitation of ACK with p85α from nuclear-enriched fractions of HEK293T cells; conditions: AIM-100 8 μM, anti-FLAG immunoprecipitation
Procedure: (§3) Figure 7 Subcellular localization of the ACK–p85α complex. ACK and WT p85α were expressed alone and together in HEK293T cells. Where indicated, cells were treated with 8 μM AIM-100. Fractionation was judged using anti-HSP56 to indicate cytoplasmic extracts and anti-fibrillarin to indicate nuclear-enriched fractions. Nuclear and cytoplasmic-enriched fractions were normalized using the Bradford assay, and FLAG-p85α was immunoprecipitated from fractions containing equal total protein using an anti-FLAG antibody. Top panel: Immunoprecipitation of FLAG-p85α and co-immunoprecipitation of HA-ACK was assessed by Western blotting using anti-FLAG and anti-HA antibodies. Bottom panel: Expression of FLAG-p85α and HA-ACK along with active ACK levels was confirmed by Western blotting of whole cell lysate (WCL) samples collected prior to cell fractionation. ACK, activated Cdc42-associated kinase.
Small-scale co-immunoprecipitations were performed using 1 μg antibody cross-linked to Protein G Dynabeads (Life Technologies) with dimethyl pimelimidate. HEK293T cells were grown in 10 cm dishes to 70% confluence and then transfected for 40 h. […]
Cells were grown in 10 cm dishes to 70% confluence and then transfected for 40 h. […] Cytoplasmic and nuclear-enriched fractions were then either analyzed by SDS-PAGE gel directly or used in co-immunoprecipitation studies.

[2] = tested on: HEK293T cells expressing WT p85β; assay: Proliferation of HEK293T cells stably expressing WT p85β; conditions: AIM-100 8 μM; DMEM + 10% FBS; 1 μg/ml doxycycline; live cell counts, fold change over 24 h; three independent experiments
Procedure: as §1, §2

pTyr284 ACK = assay: Active ACK level (pTyr284 ACK Western blot) in HEK293T cells; conditions: AIM-100 8 μM; HEK293T cells expressing ACK and WT p85α; Western blot of whole cell lysate
Procedure: as §3, with “kinase. […]” for “kinase.”

p50α–p85β complex = assay: Co-immunoprecipitation of V5-p85β with FLAG-p50α from HEK293T cells; conditions: serum starved (0.05% serum, 16 h), insulin 100 μg/ml for 90 min; anti-FLAG immunoprecipitation; Fig. 6A
Procedure: (§4) Figure 6 Dimerization of the regulatory subunits. HEK293T cells were transfected with control (GFP), FLAG-p50α (A) or FLAG-p85α (B) alone or with V5-p85β. Expression of the proteins in whole cell lysates (WCLs) is shown in the bottom panels. As indicated, cells were cultured in high serum (10% serum) or serum starved (0.05% serum) for 16 h and prior to lysis were either left untreated or stimulated with either EGF (100 ng/ml for 5 min) or insulin (100 μg/ml for 90 min). Cells were harvested 40 h after transfection and subject to immunoprecipitation using anti-FLAG antibodies. Co-precipitation of V5-p85β was assessed by Western blotting of immunoprecipitated samples using anti-V5 antibodies (top panels). C, WT p85β, WT p50α, and Y307D p50α (equivalent to Tyr607 in p85α) were expressed alone or co-expressed in HEK293T cells cultured in low serum. Samples of WCLs were analyzed by Western blotting using the antibodies indicated and are shown in lower panels. GAPDH is included as a loading control. FLAG-tagged p50α variants were immunoprecipitated from cell lysates using an anti-FLAG antibody, and the co-immunoprecipitation of p85β was assessed using an anti-V5 antibody (top panels). Results are representative of at least three independent experiments. […]

p85α–p85β complex = assay: Co-immunoprecipitation of V5-p85β with FLAG-p85α from HEK293T cells; conditions: serum starved (0.05% serum, 16 h), then EGF 100 ng/ml for 5 min or insulin 100 μg/ml for 90 min; anti-FLAG immunoprecipitation; Fig. 6B
Procedure: as §4

| Molecule | effect on proliferation of cells expressing Y599F p85β [1] | p85α–ACK complex formation in the nucleus (ACK–p85α complex) | effect on proliferation of cells expressing WT p85β [2] | active ACK levels (pTyr284 ACK) (pTyr284 ACK) | p50α–p85β complex formation (p50α–p85β complex) | p85α–p85β complex formation (p85α–p85β complex) |
| --- | --- | --- | --- | --- | --- | --- |
| c1ccc(-c2oc3ncnc(NC[C@@H]4CCCO4)c3c2-c2ccccc2)cc1 [AIM-100] | did not affect | did not block p85α–ACK complex formation | grew at a reduced rate | reduced active ACK levels |  |  |
| insulin: Tyr607 phosphorylation has been detected downstream of insulin stimulation |  |  |  |  | increased complex formation | not enhanced |
| EGF: EGF (a known stimulator of ACK) (NSDSECPLSHDGYCLHDGVCMYIEALDKYACNCVVGYIGERCQYRDLKWWELR; UniProt P01133 971-1023, looked up) |  |  |  |  |  | increase |
